Reference: patent publication US20220274927A1, “MEMBRANE-ACTIVE ANTI-BACTERIAL COMPOUNDS AND USES THEREOF” (Trustees of Dartmouth College, priority 2019, published 2022)
Converted amounts (≈) assume the structure as drawn. Read-outs that look alike come from different tables or passages of the source.

Tested on: methicillin-resistant S. aureus (FPR3757)
Assay: MIC against clinical MRSA strain FPR3757 in Mueller-Hinton broth (CLSI)
Assay type: cell-based, Staphylococcus aureus
Settings: for fold loss of potency (MIC) relative to the comparator / fold increase in potency (MIC) relative to the comparator: MRSA FPR3757 MIC ratio
Excerpt: The first set of compounds evaluated were analogs at the C-7 and C-8 positions of the initial quinolone hit DNAC-2 since the other HTS hits identified (data not shown) were substituted at these positions (Table 1). Applicants first explored modification at the C-7 position with a small series of electron-donating and withdrawing substituents. […] However, analogs containing electron donating groups at C-7 including ethyl 7, benzyloxy 8, methoxy 9 and methylthio 10 are weakly active displaying MICs of 320-640 μg/mL indicating electron-donating substituents at C-7 are poorly tolerated. […] The C-8 position was evaluated with trifluoromethyl 4 and trifluoromethoxy 5 containing the optimal C-7 substituents. Both 4 and 5 are equipotent to the corresponding C-7 analogs 2 and 3 indicating some flexibility of the quinolone scaffold.

[1] = MRSA clinical strain FPR3757, Mueller-Hinton broth, CLSI guidelines, complete inhibition of observable growth
[2] = Staphylococcus aureus, MRSA, MRSA clinical strain FPR3757, Mueller-Hinton broth, CLSI guidelines, complete inhibition of observable growth, read-out: MIC
[3] = Staphylococcus aureus, MRSA, MRSA clinical strain FPR3757, Mueller-Hinton broth, CLSI guidelines, complete inhibition of observable growth

| MIC [1] [µg/mL] | MIC [2] [µg/mL] | Structure (SMILES) | further results |
| --- | --- | --- | --- |
| 8 (≈ 17.5 µM) |  | FC(F)(F)Oc1cccc(Nc2cc(C(F)(F)F)nc3c(OC(F)(F)F)cccc23)c1 [Compound 1] |  |
|  | 2 to 4 (≈ 7.11 to 14.2 µM) | O=c1cc(C(F)(F)F)[nH]c2c(C(F)(F)F)cccc12 [Compound 4] |  |
|  | 20 (≈ 80.8 µM) | O=c1cc(C(F)(F)F)[nH]c2cc(Cl)ccc12 [Compound 6] |  |
| 320 (≈ 1330 µM) | 320 to 640 (≈ 1330 to 2650 µM) | CCc1ccc2c(=O)cc(C(F)(F)F)[nH]c2c1 [Compound 7] |  |
| 640 (≈ 2000 µM) |  | O=c1cc(C(F)(F)F)[nH]c2cc(OCc3ccccc3)ccc12 [Compound 8] |  |
| 640 (≈ 2630 µM) | 320 to 640 (≈ 1320 to 2630 µM) | COc1ccc2c(=O)cc(C(F)(F)F)[nH]c2c1 [Compound 9] | fold loss of potency (MIC) relative to the comparator: 80-160 fold |
|  | 320 (≈ 803 µM) | CC(C)c1ccccc1Nc1cc(C(F)(F)F)nc2cc(C(F)(F)F)ccc12 [Compound 12] |  |
|  | > 16 | FC(F)(F)c1ccc2c(Nc3ccccc3Cl)cc(C(F)(F)F)nc2c1 [Compound 15] |  |
| 0.12 (≈ 0.307 µM) | 0.125 to 0.25 (≈ 0.32 to 0.64 µM) | FC(F)(F)c1ccc2c(Nc3ccc(Cl)cc3)cc(C(F)(F)F)nc2c1 [Compound 17] |  |
|  | 0.25 (≈ 0.518 µM) | FC(F)(F)c1ccc2c(Nc3cccc(I)c3)cc(C(F)(F)F)nc2c1 [Compound 20] |  |
| 0.12 to 0.25 | 0.125 to 0.25 (≈ 0.319 to 0.637 µM) | Fc1ccc(Nc2cc(C(F)(F)F)nc3cc(C(F)(F)F)ccc23)cc1F [Compound 21] |  |
|  | > 16 | OCc1cccc(Nc2cc(C(F)(F)F)nc3cc(C(F)(F)F)ccc23)c1 [Compound 23] |  |
|  | > 64 | COc1cccc(Nc2cc(C(F)(F)F)nc3cc(C(F)(F)F)ccc23)c1 [Compound 25] |  |
|  | 0.25 (≈ 0.589 µM) | FC(F)(F)c1cccc(Nc2cc(C(F)(F)F)nc3cc(C(F)(F)F)ccc23)c1 [Compound 26] | fold increase in potency (MIC) relative to the comparator: 16 fold |
|  | 8 (≈ 18.2 µM) | FC(F)(F)Oc1cccc(Nc2cc(C(F)(F)F)nc3cc(C(F)(F)F)ccc23)c1 [Compound 27] |  |
|  | > 16 | FC(F)(F)c1ccc2c(Nc3ccc(N4CCOCC4)cc3)cc(C(F)(F)F)nc2c1 [Compound 30] |  |
|  | 0.5 to 1 (≈ 1.13 to 2.27 µM) | FC(F)(F)Oc1ccc2c(Nc3ccc(Cl)c(Cl)c3)cc(C(F)(F)F)nc2c1 [Compound 32] |  |

| MIC [1] [µg/mL] | MIC [2] [µg/mL] | Structure (SMILES) | further results |
| --- | --- | --- | --- |
| 1 (≈ 2.27 µM) | 0.5 to 1 (≈ 1.13 to 2.27 µM) | FC(F)(F)Oc1ccc2c(Nc3ccc(C(F)(F)F)cn3)cc(C(F)(F)F)nc2c1 [Compound 34] |  |
|  | 2 (≈ 5.17 µM) | COc1ccc2c(Nc3ccc(Cl)c(Cl)c3)cc(C(F)(F)F)nc2c1 [Compound 35] |  |
|  | > 32 | COc1ccc2c(Nc3cccc(OC(F)(F)F)c3)cc(C(F)(F)F)nc2c1 [Compound 37] |  |
|  | 32 (≈ 82.6 µM) | COc1ccc2c(Nc3ccc(C(F)(F)F)cn3)cc(C(F)(F)F)nc2c1 [Compound 38] |  |
| 1 (≈ 2.19 µM) |  | FC(F)(F)Oc1cccc(Nc2cc(C(F)(F)F)nc3c(OC(F)(F)F)cccc23)c1 [Compound 43] |  |
|  | 1 (≈ 2.27 µM) | FC(F)(F)Oc1cccc2c(Nc3ccc(C(F)(F)F)cn3)cc(C(F)(F)F)nc12 [Compound 44] |  |
|  | 0.5 to 2 (≈ 1.18 to 4.7 µM) | FC(F)(F)c1cc(Nc2ccc(Cl)c(Cl)c2)c2cccc(C(F)(F)F)c2n1 [Compound 45] |  |
|  | 0.5 (≈ 1.18 µM) | FC(F)(F)c1ccc(Nc2cc(C(F)(F)F)nc3c(C(F)(F)F)cccc23)nc1 [Compound 47] |  |
|  | > 32 | Cn1cc(Nc2cc(C(F)(F)F)nc3cc(C(F)(F)F)ccc23)ccc1=O [Compound 50] |  |
|  | > 128 | Oc1ncccc1Nc1cc(C(F)(F)F)nc2cc(C(F)(F)F)ccc12 [Compound 51] |  |
| >32 | > 32 | COC(=O)c1cc(Nc2cc(C(F)(F)F)nc3cc(C(F)(F)F)ccc23)ccn1 [Compound 54] |  |
| >32 | > 32 | FC(F)(F)c1ccc2c(Nc3ncccn3)cc(C(F)(F)F)nc2c1 [Compound 56] |  |
| >32 | > 32 | O=C1Cc2cc(Nc3cc(C(F)(F)F)nc4cc(C(F)(F)F)ccc34)ccc2N1 [Compound 64] |  |
| 2 (≈ 4.8 µM) | 1 to 2 (≈ 2.4 to 4.8 µM) | CN(C)c1ccc(Nc2cc(C(F)(F)F)cc3[nH]c(C(F)(F)F)cc(=O)c23)nc1 [Compound 113] |  |
| 1 (≈ 2.34 µM) | 1 to 2 (≈ 2.34 to 4.68 µM) | O=c1cc(C(F)(F)F)[nH]c2cc(C(F)(F)F)cc(-c3ccc(C(F)(F)F)nn3)c12 [Compound 114] |  |
| 2 (≈ 4.16 µM) |  | CN(C)S(=O)(=O)c1ccc(Nc2cc(C(F)(F)F)cc3[nH]c(C(F)(F)F)cc(=O)c23)nc1 [Compound 115] |  |

Second part, the molecule before the results:

| Structure (SMILES) | MIC [1] [µg/mL] | MIC [2] [µg/mL] | further results |
| --- | --- | --- | --- |
| O=c1cc(C(F)(F)F)[nH]c2cc(C(F)(F)F)ccc12 [Compound 2] | 5 (≈ 17.8 µM) | 4 to 8 (≈ 14.2 to 28.5 µM) |  |
| O=c1cc(C(F)(F)F)[nH]c2cc(OC(F)(F)F)ccc12 [Compound 3] |  | 4 to 8 (≈ 13.5 to 26.9 µM) |  |
| O=c1cc(C(F)(F)F)[nH]c2c(OC(F)(F)F)cccc12 [Compound 5] |  | 5 (≈ 16.8 µM) |  |
| CSc1ccc2c(=O)cc(C(F)(F)F)[nH]c2c1 [Compound 10] | 640 (≈ 2470 µM) |  |  |
| FC(F)(F)c1ccc2c(Nc3ccccc3)cc(C(F)(F)F)nc2c1 [Compound 11] |  |  | MIC (Staphylococcus aureus, MRSA): 128 µg/mL (≈ 359 µM) |
| CC(=O)c1cccc(Nc2cc(C(F)(F)F)nc3cc(C(F)(F)F)ccc23)c1 [Compound 13] |  |  | MIC (Staphylococcus aureus, MRSA): > 128 µg/mL |
| N#Cc1cccc(Nc2cc(C(F)(F)F)nc3cc(C(F)(F)F)ccc23)c1 [Compound 14] | >32 |  |  |
| FC(F)(F)c1ccc2c(Nc3cccc(Cl)c3)cc(C(F)(F)F)nc2c1 [Compound 16] | 0.25 (≈ 0.64 µM) | 0.125 to 0.25 (≈ 0.32 to 0.64 µM) |  |
| Fc1cccc(Nc2cc(C(F)(F)F)nc3cc(C(F)(F)F)ccc23)c1 [Compound 18] |  |  | fold loss of potency (MIC) relative to the comparator: 16-64 fold |
| FC(F)(F)c1ccc2c(Nc3cccc(Br)c3)cc(C(F)(F)F)nc2c1 [Compound 19] |  | 0.25 (≈ 0.574 µM) |  |
| CSc1cccc(Nc2cc(C(F)(F)F)nc3cc(C(F)(F)F)ccc23)c1 [Compound 24] | 0.25 to 0.5 |  |  |
| FC(F)(F)c1ccc2c(Nc3ccc4c(c3)OCO4)cc(C(F)(F)F)nc2c1 [Compound 28] | >4 |  |  |
| FC(F)(F)c1ccc2c(Nc3cccc(N4CCOCC4)c3)cc(C(F)(F)F)nc2c1 [Compound 29] |  | > 16 |  |
| FC(F)(F)Oc1cccc(Nc2cc(C(F)(F)F)nc3cc(OC(F)(F)F)ccc23)c1 [Compound 33] | 1 (≈ 2.19 µM) | 0.5 to 1 (≈ 1.1 to 2.19 µM) |  |
| COc1ccc2c(Nc3ccc(F)c(F)c3)cc(C(F)(F)F)nc2c1 [Compound 36] |  | > 32 |  |
| FC(F)(F)Oc1cccc2c(Nc3ccc(Cl)c(Cl)c3)cc(C(F)(F)F)nc12 [Compound 42] |  | 0.5 (≈ 1.13 µM) |  |
| FC(F)(F)c1cccc(Nc2cc(C(F)(F)F)nc3c(C(F)(F)F)cccc23)c1 [Compound 46] |  | 1 (≈ 2.36 µM) |  |
| FC(F)(F)c1ccc2c(Nc3cc(Cl)ccn3)cc(C(F)(F)F)nc2c1 [Compound 48] |  | 2 (≈ 5.11 µM) | fold loss of potency (MIC) relative to the comparator: 8 fold |
| FC(F)(F)c1ccc2c(Nc3ccc(C(F)(F)F)nc3)cc(C(F)(F)F)nc2c1 [Compound 49] |  | > 32 |  |

| Structure (SMILES) | MIC [1] [µg/mL] | MIC [2] [µg/mL] | further results |
| --- | --- | --- | --- |
| O=c1cc(Nc2cc(C(F)(F)F)nc3cc(C(F)(F)F)ccc23)cc[nH]1 [Compound 52] |  | > 32 |  |
| FC(F)(F)c1ccc2c(Nc3ccncc3)cc(C(F)(F)F)nc2c1 [Compound 53] | >32 |  | MIC [3]: > 32 µg/mL |
| FC(F)(F)c1ccc2c(Nc3nccs3)cc(C(F)(F)F)nc2c1 [Compound 55] | 1 to 2 | 2 (≈ 5.51 µM) |  |
| FC(F)(F)c1ccc2c(NC3CCCCC3)cc(C(F)(F)F)nc2c1 [Compound 57] | >16 |  | MIC [3]: > 32 µg/mL |
| OC1CCCN(c2cc(C(F)(F)F)nc3cc(C(F)(F)F)ccc23)C1 (centres unmarked) [Compound 58] | >32 | > 32 |  |
| FC(F)(F)c1ccc2c(N3CCOCC3)cc(C(F)(F)F)nc2c1 [Compound 59] | >32 | > 32 |  |
| FC(F)(F)c1ccc2c(NC[C@@H]3CCCN3)cc(C(F)(F)F)nc2c1 [Compound 60] | >32 | > 32 |  |
| FC(F)(F)c1ccc2c(Nc3cccc4[nH]ncc34)cc(C(F)(F)F)nc2c1 [Compound 61] | >32 | > 32 |  |
| CN1Cc2cc(Nc3cc(C(F)(F)F)nc4cc(C(F)(F)F)ccc34)ccc2C1=O [Compound 62] | >32 | > 32 |  |
| FC(F)(F)c1ccc2c(N3CCc4cccnc43)cc(C(F)(F)F)nc2c1 [Compound 63] | >32 | > 32 |  |
| O[C@H]1C[C@H]2CC[C@@H](C1)C2Nc1cc(C(F)(F)F)nc2cc(C(F)(F)F)ccc12 (some centres unmarked) [Compound 65] | >32 | > 32 |  |
| FC(F)(F)c1ccc2c(Nc3ccc(Cl)c(Cl)c3)nc(C(F)(F)F)nc2c1 [Compound 89] | 0.5 (≈ 1.17 µM) |  | fold loss of potency (MIC) relative to the comparator: 8 fold |
| FC(F)(F)Oc1cccc(Nc2nc(C(F)(F)F)nc3cc(C(F)(F)F)ccc23)c1 [Compound 90] | 1 (≈ 2.27 µM) |  | fold increase in potency (MIC) relative to the comparator: 8 fold |
| FC(F)(F)c1ccc(Nc2nc(C(F)(F)F)nc3cc(C(F)(F)F)ccc23)nc1 [Compound 91] |  |  | fold loss of potency (MIC) relative to the comparator: 8 fold |
| FC(F)(F)c1ccc(Nc2cc(N3CCNCC3)nc3cc(C(F)(F)F)ccc23)nc1 [Compound 102] | 0.5 to 1 |  |  |
| FC(F)(F)c1ccc(Nc2cc(N3CCNCC3)c3ccc(C(F)(F)F)cc3n2)nc1 [Compound 103] | 4 to 8 |  |  |
| FC(F)(F)c1ccc(Nc2cc(N3CCOCC3)c3ccc(C(F)(F)F)cc3n2)nc1 [Compound 105] | 8 (≈ 18.1 µM) |  |  |
| O=c1cc(C(F)(F)F)[nH]c2cc(C(F)(F)F)cc(Nc3ccc(F)cn3)c12 [Compound 112] |  | 0.12 (≈ 0.307 µM) |  |
